This note sets out measurements from US7354737B2, “Biomolecule transduction motif Sim-2-BTM and the use thereof” (ForHumanTech Co., Ltd., priority 2002, dated 2008).

Test [1] deals with Jurkat T cells. As to the kind of experiment: Transduction of insulin fusion proteins, detected using mAb to insulin. In kind it is cell-based. The conditions noted are these: detected with mAb to insulin. An excerpt: A fusion protein of Sim-2 BTM and biologically active functional regulatory protein, which was expressed and purified from bacteria, was reformed so as to have natural folding structure and functions. Specifically, the fusion protein isolated and purified from bacteria was transferred again into CHO (Chinese hamster ovary) cells, and then the fusion protein, which had complete folding structure and functions found in natural state, was isolated and purified. As for purified 2 (two) types of fusion proteins, biological activity regulating capabilities were examined. For this examination, an expression vector pSim-2-insulin was designed in order to prepare fusion protein between Sim-2 BTM and human insulin. In order to make this expression vector, a 5′ primer of SEQ. ID No.:17 comprising nucleic acid sequence of Xba I restriction enzyme, nucleic acid sequence of Sim-2 BTM and N-terminal nucleic acid sequence of human insulin, and a 3′ primer of SEQ. ID No.:18 comprising nucleic acid sequence of Hind m and C-terminal nucleic acid sequence of human insulin were prepared. Then, PCR amplification was carried out using human pancreas beta cells prepared in our laboratory, as a template, and using the primers above mentioned. […] Following the treatment, the transduction level of insulin into the cells was detected using mAb to the insulin and was compared.

The test system of test [2] is Streptozotocin-Induced diabetic mice. As to the kind of experiment: Blood glucose level lowering in Streptozotocin-Induced diabetic mice. In kind it is in vivo. The conditions noted are these: IP injection (1-10 mM). Here is the method: Blood glucose level lowering was examined using Sim-2-insulin and Sim-2-insulin-PR in the Example 13 with Streptozotocin-Induced diabetic mice. After 3 (three) days of abstinence, STZ (Sigma Chemical Co, St Louis, USA) (60 mg/kg) were […]. Insulin dependent diabetic mice were defined having 20 mmol/L or more blood glucose level together with other diabetic syndrome such as polyurea etc. All the in vivo studies were carried out after 2 weeks from the induction of diabetes. Recombinant insulin alone, Sim-2-insulin and Sim-2-insulin-PR in the Example 13 were, respectively, administered to the mice by IP injection (1-10 mM), and the blood glucose levels in the mice were monitored. In order to analyze the level of blood glucose, about 0.2 ml of blood was collected from each of the mice after anesthetizing them, and then the blood was subject to centrifuge at 13,000 rpm for 3 min. Next, about […] of serum was added to 1.5 ml of glucose kit agent (BiosystemSA, Barcelona, Spain) and the mixture was incubated at 37° C. for 10 min in water-bath. The level of blood glucose was detected with blood glucose analyzer (Quik-Lab, Ames, Miles Inc. Elkart, Ind., USA).

The subject of test [3] is HUVEC, HeLa, 293 and Jurkat cells. Briefly: Transduction of fusion protein across cell membrane, β-galactosidase staining and microscopy. The format is cell-based. The conditions noted are these: 0.5 μM, 30 min, 37° C., HeLa, 293, Jurkat cells. Here is the method:
HUVEC (ATCC:CRL-1730) (2×10^5), HeLa (ATCC:CCL-2) (2×10^5), and 293 (ATCC:CRL-1573) (2×10^5), which were incubated in 10% FBS (Fetal Bovine Serum) of DMEM, were respectively transferred to Lab-tek II chamber slides. Jurkat cells (ATCC:CRL-10915) (2×10^5) incubated in 10% FBS RPMI were transferred to poly-L-lysin coated slide. Each of the slides was treated with the purified 0.5 μM of Sim-2-β-galactosidase for 30 min at 37° C. in 5% CO2 incubator. And the supernatants were removed from the slides. The incubation mixtures were washed using ice-cold PBS four times and then were solidified with 2% formaldehyde solution for 10 min. After removing the solidified solutions, the mixtures were washed again using ice-cold PBS four times. Subsequently, the respective mixtures were treated with 700 μl of β-galactosidase staining solution (Roche. Co.) for 45 min at 37° C. in 5% CO2 incubator. Following the staining, the mixtures were washed with ice-cold PBS four times after removing the supernatants. Next, the mixtures were mounted with 70% glycerol on the microscope slides.

For the substance “Recombinant insulin: recombinant insulin not fused to Sim-2 BTM”, the “transduction level of insulin into Jurkat T cells” value in test [1] was “almost none”. In test [2] (after administration), the “blood glucose level, After administration” value is recorded as 2320. The “blood glucose level, Before administration” value in test [2] (before administration) came out at 5600. Moreover, the “lowering of blood glucose level” value in test [2] (from Table 3) amounted to 50%.
As for “β-gal: β-galactosidase reporter protein not fused to Sim-2”, the “transduction across the cell membranes (β-galactosidase staining)” value in test [3] is “not transduced at all”.
